Experimental findings from patent US9663519B2, “Compounds useful as inhibitors of ATR kinase” (Vertex Pharmaceuticals Incorporated, priority 2013, dated 2017) are described below.

The test system of assay [1] is HCT116 colorectal cancer cells. Put plainly: Cisplatin Sensitization Assay (96 h cell viability MTS). To be noted: Cisplatin sensitization value: concentration of compound required to reduce the IC50 of Cisplatin alone by at least 3-fold; HCT116, 96 h MTS. It counts as cell-based. As for the experimental part: Compounds can be screened for their ability to sensitize HCT116 colorectal cancer cells to Cisplatin using a 96 h cell viability (MTS) assay. […] Compounds and Cisplatin are then both added simultaneously to the cell media in 2-fold serial dilutions from a top final concentration of 10 μM as a full matrix of concentrations in a final cell volume of 200 μl, and the cells are then incubated at 37° C. in 5% CO2. After 96 h, 40 μl of MTS reagent (Promega G358a) is added to each well and the cells are incubated for 1 h at 37° C. in 5% CO2. Finally, absorbance is measured at 490 nm using a SpectraMax Plus 384 reader (Molecular Devices) and the concentration of compound required to reduce the IC50 of Cisplatin alone by at least 3-fold (to 1 decimal place) can be reported.

The target in a further assay is full-length ATR (Homo sapiens (Human), UniProt Q13535). As to the kind of experiment: ATR Inhibition Assay (radioactive-phosphate incorporation). The note with it: Ki(app); 5 nM full-length ATR, 10 μM ATP, 25° C. It counts as biochemical. Here is the method:
Compounds were screened for their ability to inhibit ATR kinase using a radioactive-phosphate incorporation assay. Assays were carried out in a mixture of 50 mM Tris/HCl (pH 7.5), 10 mM MgCl2 and 1 mM DTT. Final substrate concentrations were 10 μM [γ-33P]ATP (3 mCi 33P ATP/mmol ATP, Perkin Elmer) and 800 μM target peptide (ASELPASQPQPFSAKKK (SEQ. ID NO: 1)).
Assays were carried out at 25° C. in the presence of 5 nM full-length ATR. An assay stock buffer solution was prepared containing all of the reagents listed above, with the exception of ATP and the test compound of interest. 13.5 μL of the stock solution was placed in a 96 well plate followed by addition of 2 μL of DMSO stock containing serial dilutions of the test compound (typically starting from a final concentration of 15 μM with 3-fold serial dilutions) in duplicate (final DMSO concentration 7%). The plate was pre-incubated for 10 minutes at 25° C. and the reaction initiated by addition of 15 μL [γ-33P]ATP (final concentration 10 μM).
The reaction was stopped after […] by the addition of 30 μL 0.1M phosphoric acid containing 2 mM ATP. A multiscreen phosphocellulose filter 96-well plate (Millipore, Cat no. MAPHN0B50) was pretreated with 100 μL 0.2M phosphoric acid prior to the addition of 45 μL of the stopped assay mixture. The plate was washed with 5×200 μL 0.2M phosphoric acid. After drying, 100 μL Optiphase ‘SuperMix’ liquid scintillation cocktail (Perkin Elmer) was added to the well prior to scintillation counting (1450 Microbeta Liquid Scintillation Counter, Wallac).
After removing mean background values for all of the data points, Ki(app) data were calculated from non-linear regression analysis of the initial rate data using the Prism software package (GraphPad Prism version 3.0cx for Macintosh, GraphPad Software, San Diego Calif., USA).

Sequence of full-length ATR (Q13535 whole entry): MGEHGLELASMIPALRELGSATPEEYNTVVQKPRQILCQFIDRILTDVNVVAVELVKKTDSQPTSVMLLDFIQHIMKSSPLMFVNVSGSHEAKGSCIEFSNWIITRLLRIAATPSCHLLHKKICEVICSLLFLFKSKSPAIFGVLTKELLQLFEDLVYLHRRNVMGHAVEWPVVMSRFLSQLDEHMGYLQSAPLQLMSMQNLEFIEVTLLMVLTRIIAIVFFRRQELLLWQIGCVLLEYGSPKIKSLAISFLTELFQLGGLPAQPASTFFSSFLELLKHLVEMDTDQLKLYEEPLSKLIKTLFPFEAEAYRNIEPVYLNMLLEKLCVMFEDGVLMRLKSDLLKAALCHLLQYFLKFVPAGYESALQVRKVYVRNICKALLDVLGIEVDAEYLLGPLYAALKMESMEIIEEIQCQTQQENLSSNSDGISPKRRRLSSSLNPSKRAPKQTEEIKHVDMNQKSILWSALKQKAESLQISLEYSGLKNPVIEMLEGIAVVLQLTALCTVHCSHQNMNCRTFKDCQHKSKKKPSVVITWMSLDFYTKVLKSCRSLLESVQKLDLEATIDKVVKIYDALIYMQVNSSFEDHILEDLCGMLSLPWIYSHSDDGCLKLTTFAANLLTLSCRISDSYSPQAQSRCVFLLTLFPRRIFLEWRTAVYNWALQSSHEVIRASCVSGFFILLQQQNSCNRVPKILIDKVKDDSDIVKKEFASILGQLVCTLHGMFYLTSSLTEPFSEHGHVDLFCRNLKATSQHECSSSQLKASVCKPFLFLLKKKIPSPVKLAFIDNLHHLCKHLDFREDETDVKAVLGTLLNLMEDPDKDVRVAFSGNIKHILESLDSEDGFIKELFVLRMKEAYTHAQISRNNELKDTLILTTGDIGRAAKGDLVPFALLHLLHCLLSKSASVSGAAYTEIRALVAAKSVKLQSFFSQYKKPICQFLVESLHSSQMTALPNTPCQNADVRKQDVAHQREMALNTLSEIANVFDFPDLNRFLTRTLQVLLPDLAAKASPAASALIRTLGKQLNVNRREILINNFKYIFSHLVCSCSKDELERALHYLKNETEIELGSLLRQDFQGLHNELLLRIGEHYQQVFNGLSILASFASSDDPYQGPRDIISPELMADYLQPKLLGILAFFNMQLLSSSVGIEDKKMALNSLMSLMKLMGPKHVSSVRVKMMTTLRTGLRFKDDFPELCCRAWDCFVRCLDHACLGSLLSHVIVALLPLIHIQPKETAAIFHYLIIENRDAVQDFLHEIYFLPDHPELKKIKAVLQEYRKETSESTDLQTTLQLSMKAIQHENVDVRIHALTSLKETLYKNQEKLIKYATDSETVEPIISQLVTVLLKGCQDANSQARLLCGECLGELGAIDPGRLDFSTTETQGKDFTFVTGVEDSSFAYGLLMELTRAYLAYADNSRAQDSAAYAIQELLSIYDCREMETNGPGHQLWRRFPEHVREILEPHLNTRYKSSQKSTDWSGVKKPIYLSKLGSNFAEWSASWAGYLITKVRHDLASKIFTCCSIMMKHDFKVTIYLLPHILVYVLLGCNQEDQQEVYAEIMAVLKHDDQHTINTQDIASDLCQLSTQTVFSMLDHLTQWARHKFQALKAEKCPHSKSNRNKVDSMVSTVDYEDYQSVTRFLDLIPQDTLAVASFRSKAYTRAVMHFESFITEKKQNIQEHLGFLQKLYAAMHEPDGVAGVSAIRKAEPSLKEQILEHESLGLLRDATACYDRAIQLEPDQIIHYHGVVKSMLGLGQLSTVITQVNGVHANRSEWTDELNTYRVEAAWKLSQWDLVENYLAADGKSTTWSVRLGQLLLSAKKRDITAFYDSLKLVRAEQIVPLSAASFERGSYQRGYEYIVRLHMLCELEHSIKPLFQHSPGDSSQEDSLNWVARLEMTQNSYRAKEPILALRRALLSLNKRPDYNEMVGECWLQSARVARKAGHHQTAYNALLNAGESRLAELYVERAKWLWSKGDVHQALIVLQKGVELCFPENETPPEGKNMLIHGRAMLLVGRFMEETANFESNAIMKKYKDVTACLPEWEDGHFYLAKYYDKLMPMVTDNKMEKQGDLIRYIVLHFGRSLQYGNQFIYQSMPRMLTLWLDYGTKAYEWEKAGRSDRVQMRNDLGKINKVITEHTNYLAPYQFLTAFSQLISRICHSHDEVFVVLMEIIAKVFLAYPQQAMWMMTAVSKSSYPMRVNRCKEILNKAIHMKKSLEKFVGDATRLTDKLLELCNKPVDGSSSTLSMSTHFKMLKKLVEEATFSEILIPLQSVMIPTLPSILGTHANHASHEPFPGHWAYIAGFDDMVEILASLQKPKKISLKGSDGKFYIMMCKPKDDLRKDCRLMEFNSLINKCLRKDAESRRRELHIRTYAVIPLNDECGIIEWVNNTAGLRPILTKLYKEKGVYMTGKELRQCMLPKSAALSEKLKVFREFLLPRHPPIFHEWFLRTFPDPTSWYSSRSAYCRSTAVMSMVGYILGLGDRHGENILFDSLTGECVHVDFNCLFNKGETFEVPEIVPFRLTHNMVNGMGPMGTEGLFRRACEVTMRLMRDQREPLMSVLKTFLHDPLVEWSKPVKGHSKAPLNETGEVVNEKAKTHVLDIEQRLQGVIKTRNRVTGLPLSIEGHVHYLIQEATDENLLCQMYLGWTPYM

`COc1ccncc1NC(=O)c1c(N)nn2cc3c(nc12)CCN(CCF)C3` [Compound I-19, 2-amino-7-(2-fluoroethyl)-N-(4-methoxypyridin-3-yl)-5,6,7,8-tetrahydropyrazolo[1,5-a]pyrido[4,3-d]pyrimidine-3-carboxamide]: the “Synergy with Cisplatin” value in assay [1] was “++ (Cisplatin sensitization value >0.02 μM but <0.2 μM)”. The Ki at full-length ATR was in the range of 0.01 to 1 µM.

`Cc1ccncc1NC(=O)c1c(N)nn2cc3c(nc12)CCN(C1COC1)C3` [Compound I-20, 2-amino-N-(4-methylpyridin-3-yl)-7-(oxetan-3-yl)-5,6,7,8-tetrahydropyrazolo[1,5-a]pyrido[4,3-d]pyrimidine-3-carboxamide]: the “Synergy with Cisplatin” value in assay [1] was “++ (Cisplatin sensitization value >0.02 μM but <0.2 μM)”. For the same compound, at full-length ATR, the Ki lay within 0.01 to 1 µM.

`Nc1nn2cc3c(nc2c1C(=O)Nc1cnccc1C1CC1)CCN(C1COC1)C3` [Compound I-21, 2-amino-N-(4-cyclopropylpyridin-3-yl)-7-(oxetan-3-yl)-5,6,7,8-tetrahydropyrazolo[1,5-a]pyrido[4,3-d]pyrimidine-3-carboxamide]: in assay [1], the “Synergy with Cisplatin” value is reported as “++ (Cisplatin sensitization value >0.02 μM but <0.2 μM)”. The Ki at full-length ATR lay in the range of 0.01 to 1 µM.

In the case of `Nc1nn2cc3c(nc2c1C(=O)Nc1cncc(F)c1C1CC1)CCN(C1COC1)C3` [Compound I-22, 2-amino-N-(4-cyclopropyl-5-fluoropyridin-3-yl)-7-(oxetan-3-yl)-5,6,7,8-tetrahydropyrazolo[1,5-a]pyrido[4,3-d]pyrimidine-3-carboxamide], in assay [1], the “Synergy with Cisplatin” value was “++ (Cisplatin sensitization value >0.02 μM but <0.2 μM)”. Besides, the Ki at full-length ATR was 0.01 to 1 µM.

On to `COc1ccncc1NC(=O)c1c(N)nn2cc3c(nc12)CCN(C1COC1)C3` [Compound I-24, 2-amino-N-(4-methoxypyridin-3-yl)-7-(oxetan-3-yl)-5,6,7,8-tetrahydropyrazolo[1,5-a]pyrido[4,3-d]pyrimidine-3-carboxamide], for which the “Synergy with Cisplatin” value in assay [1] is “++ (Cisplatin sensitization value >0.02 μM but <0.2 μM)”. For the same compound, on full-length ATR, the Ki fell in the range of 0.01 to 1 µM.

On to `COc1cc(Cl)ncc1NC(=O)c1c(N)nn2cc3c(nc12)CCN(C1COC1)C3` [Compound I-25, 2-amino-N-(6-chloro-4-methoxypyridin-3-yl)-7-(oxetan-3-yl)-5,6,7,8-tetrahydropyrazolo[1,5-a]pyrido[4,3-d]pyrimidine-3-carboxamide], for which the “Synergy with Cisplatin” value in assay [1] was “++ (Cisplatin sensitization value >0.02 μM but <0.2 μM)”. Moreover, the Ki at full-length ATR is 0.01 to 1 µM.

Regarding `Nc1nn2cc3c(nc2c1C(=O)Nc1cncnc1C1CC1)CCN(C1COC1)C3` [Compound I-26, 2-amino-N-(4-cyclopropylpyrimidin-5-yl)-7-(oxetan-3-yl)-5,6,7,8-tetrahydropyrazolo[1,5-a]pyrido[4,3-d]pyrimidine-3-carboxamide], the “Synergy with Cisplatin” value in assay [1] is “+ (Cisplatin sensitization value >0.2 μM but <5 μM)”. The Ki on full-length ATR was 1 to 5 µM.

Take `COc1ncncc1NC(=O)c1c(N)nn2cc3c(nc12)CCN(C1COC1)C3` [Compound I-27, 2-amino-N-(4-methoxypyrimidin-5-yl)-7-(oxetan-3-yl)-5,6,7,8-tetrahydropyrazolo[1,5-a]pyrido[4,3-d]pyrimidine-3-carboxamide]: the “Synergy with Cisplatin” value in assay [1] is reported as “++ (Cisplatin sensitization value >0.02 μM but <0.2 μM)”. In addition, at full-length ATR, the Ki was in the range of 0.01 to 1 µM.

Consider `COCCN1CCc2nc3c(C(=O)Nc4cnccc4C4CC4)c(N)nn3cc2C1` [Compound I-28, 2-amino-N-(4-cyclopropylpyridin-3-yl)-7-(2-methoxyethyl)-5,6,7,8-tetrahydropyrazolo[1,5-a]pyrido[4,3-d]pyrimidine-3-carboxamide], for which the “Synergy with Cisplatin” value in assay [1] was “++ (Cisplatin sensitization value >0.02 μM but <0.2 μM)”. In addition, the Ki at full-length ATR lay in the range of 0.01 to 1 µM.

Regarding `CN1CCc2nc3c(C(=O)Nc4cnccc4OCC(F)(F)F)c(N)nn3cc2C1` [Compound I-30, 2-amino-7-methyl-N-(4-(2,2,2-trifluoroethoxy)pyridin-3-yl)-5,6,7,8-tetrahydropyrazolo[1,5-a]pyrido[4,3-d]pyrimidine-3-carboxamide], in assay [1], the “Synergy with Cisplatin” value was “+++ (Cisplatin sensitization value of <0.02 μM)”. In addition, on full-length ATR, the Ki lay within 0.01 to 1 µM.

Regarding `COc1ccncc1NC(=O)c1c(N)nn2cc3c(nc12)C(C)(C)CNC3` [Compound I-31, 2-amino-N-(4-methoxypyridin-3-yl)-5,5-dimethyl-5,6,7,8-tetrahydropyrazolo[1,5-a]pyrido[4,3-d]pyrimidine-3-carboxamide], in assay [1], the “Synergy with Cisplatin” value is on record as “++ (Cisplatin sensitization value >0.02 μM but <0.2 μM)”. Further, the Ki on full-length ATR fell in the range of 0.01 to 1 µM.

`Cc1nsc(NC(=O)c2c(N)nn3cc4c(nc23)CCN(C2COC2)C4)c1C1CC1` [Compound I-33, 2-amino-N-(4-cyclopropyl-3-methylisothiazol-5-yl)-7-(oxetan-3-yl)-5,6,7,8-tetrahydropyrazolo[1,5-a]pyrido[4,3-d]pyrimidine-3-carboxamide]: in assay [1], the “Synergy with Cisplatin” value was “+++ (Cisplatin sensitization value of <0.02 μM)”. The Ki on full-length ATR was 0.01 to 1 µM.
